Experimental findings from patent publication US9284283B2, “Macrocyclic compounds for modulating IL-17” (ENSEMBLE THERAPEUTICS CORPORATION, priority 2012, dated 2016) are described below.

One assay concerns the target T1, IL17A (Homo sapiens, UniProt Q16552).
T1 sequence (Q16552 24-155): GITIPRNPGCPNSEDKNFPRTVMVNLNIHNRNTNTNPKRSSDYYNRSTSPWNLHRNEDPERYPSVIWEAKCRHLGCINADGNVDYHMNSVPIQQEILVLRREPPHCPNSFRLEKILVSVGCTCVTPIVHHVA
Nature of the assay: Surface Plasmon Resonance (SPR) analysis of compound interactions with IL17A. The following applies: SPR binding to IL17A. The procedure, abridged:
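His-tagged IL17A captured on a Ni-NTA chip; five 2- or 3-fold compound dilutions from 50 μM injected for 180 s, 120 s dissociation, in HEPES-saline buffer with 0.5% DMSO. Baseline-subtracted sensorgrams fitted 1:1 for ka, kd and KD; Kd also derived from binding extent per concentration.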
On the technique in general: Surface plasmon resonance follows binding to a sensor surface in real time, without labels.

The subject of assay [1] is IL-17A induced secretion of IL-6 in primary human RASF cells. Nature of the assay: Inhibition of IL17A induced secretion of IL6 in human rheumatoid arthritis synovial fibroblast (RASF) cells. In kind it is cell-based. The following applies: Homo sapiens, Fibroblast. In outline: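 Primary RASF cells (passage 2-8) stimulated 20 h at 37 °C with rhIL-17A (30 ng/mL) pre-incubated 1 h with compound (final 0.03-25 μM, 0.25% DMSO). Supernatant IL-6 measured by ELISA, normalized to WST1 viability; triplicates.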

Assay [2] has as its target T2, recombinant human IL17a (binding to its receptor IL17R) (Homo sapiens, UniProt Q16552).
T2 construct: purchased R&D Systems 317-ILB (IL17a); 177-IR (IL17R/Fc)
T2 sequence (Q16552 20-155 limits assumed): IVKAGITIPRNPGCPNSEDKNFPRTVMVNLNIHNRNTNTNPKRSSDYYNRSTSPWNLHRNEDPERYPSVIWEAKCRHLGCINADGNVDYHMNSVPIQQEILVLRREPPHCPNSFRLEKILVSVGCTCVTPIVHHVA
Put plainly: IL-17 competition ELISA I (IL17a coated, IL17R/Fc binding). In outline: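 Plates coated with 20 nM recombinant human IL17a received compound dilutions and 12 nM IL17R/Fc (final) for 30 min at room temperature. Bound receptor was detected with HRP anti-human Fc and TMB, read at 450 nm. IC50 came from a 4-parameter logistic fit between no-competitor and blank controls.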

In assay [3] the target is T3, biotinylated human IL-17 (binding to IL17R/Fc) (Homo sapiens, UniProt Q16552).
T3 construct: purchased R&D Systems 317-ILB (IL-17, biotinylated); 177-IR (IL17R/Fc)
T3 sequence (Q16552 20-155 limits assumed): T2 sequence (Q16552 20-155 limits assumed)
Put plainly: IL-17 competition ELISA II (captured IL17R/Fc, biotinylated IL-17). In outline:
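Competition read-out: absorbance at 450 nm after streptavidin-HRP/TMB detection, fitted to a 4-parameter logistic model bounded by no-competitor and blank wells to give IC50. Compound was serially diluted 5-fold from 1 μM alongside 20 nM (stock) biotinylated IL-17 on IL17R/Fc (10 nM) captured via goat anti-human IgG, 30 min at room temperature.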

In the next assay the test system is DNFB-treated BALB/c mice. Nature of the assay: Murine model of delayed hypersensitivity (DNFB-induced ear edema). In kind it is in vivo, mouse. The conditions noted are these: po; for Reduction in edema (%): ear weight 24 h after DNFB challenge; for IFNγ Reduction (%) / IL6 Reduction (%) / CXCL1 Reduction (%): plasma. The method, then:
We used a murine model of fluorodinitrobenzene (DNFB)-induced ear edema to test the anti-inflammatory activity of both orally dosed and intraperitoneally dosed exemplary compounds of the invention. BALB/c mice (Harlan Sprague-Dawley, Inc., male, 6-8 weeks old) were topically treated on their shaved abdomen with 30 μL of 0.5% 1-fluoro-2,4-dinitrobenzene (DNFB) (4:1 acetone:olive oil) once on Day 0 and once on Day 1.
For oral dosing (“PO”), exemplary compounds of the invention were either suspended at 3 mg/mL in 20% Cremophor EL (Sigma) (20:80; Cremophor:water) or dissolved at 1 mg/mL or 3 mg/mL in D-α-tocopherol polyethylene glycol 1000 succinate (TPGS; Sigma)/PEG-400/water (20:60:20). For intraperitoneal dosing (“IP”), exemplary compounds of the invention were dissolved in DMSO at a concentration of 5 mg/mL. On day 7, the test compound was administered (PO at either 10 mg/kg or 30 mg/kg; IP at 1, 3, or 10 mg/kg) to DNFB-treated mice. Commercially available anti-mouse IL-17A (BioLegend) administered intraperitoneally at 5 mg/kg in PBS was used as a positive control. Thirty minutes later, 20 μL of 0.2% DNFB was applied to the right ear of animals and vehicle ([…]:olive oil) was applied to the left ear. One and four hours after DNFB challenge, a subset of mice was exsanguinated and plasma prepared from the blood. Twenty-four hours after challenge, the remaining mice were euthanized, and their ears were removed and weighed to determine the amount of edema. Plasma was assayed for interleukin-6, TNF-α, CXCL1, and interferon-γ concentrations using commercially-available assays.

Each structure is given as a SMILES string. pIC50, pKd: −log10 of the molar value.

Compound `CC[C@H](C)[C@H](NC(=O)Cc1ccccc1)C(=O)Nc1ccc(C[C@H]2NC(=O)CC3(CCCC3)CC(=O)N[C@H](C(=O)OC)CCCCNC(=O)CCCNC2=O)cc1` [Compound 122] showed a pKd at IL17A of 5.00 to 6.00. Also, the negative logarithm of the IC50 (pIC50) in assay [1] and in assay [2] was 5.00 to 6.00 each time.

In the case of `CC(=O)N[C@@H](Cc1ccccc1Cl)C(=O)Nc1ccc(C[C@H]2NC(=O)CC3(CCCC3)CC(=O)NCCCCCNC(=O)CNC2=O)cc1` [Compound 153], on IL17A, the negative logarithm of the Kd (pKd) was over 7.00. Moreover, the pIC50 was 5.00 to 6.00 in assay [1] and over 7.00 in assay [2].

Compound `O=C1CNC(=O)[C@@H](Cc2ccc(NC(=O)[C@H](Cc3ccccc3Cl)NC(=O)Cc3ccccc3)cc2)NC(=O)CC2(CCCC2)CC(=O)N(CCO)CCCCCN1` [Compound 168] gave a negative-log Kd (pKd) at IL17A of over 7.00. In addition, in assay [1], the pIC50 was 5.00 to 6.00.

Regarding `CC(=O)N[C@@H](Cc1ccccc1Cl)C(=O)Nc1ccc(C[C@H]2NC(=O)CC3(CCCC3)CC(=O)N(CCO)CCCCCNC(=O)CNC2=O)cc1` [Compound 169], the negative logarithm of the Kd (pKd) on IL17A is over 7.00. Moreover, the negative-log IC50 (pIC50) in assay [1] was under 5.00; in assay [2] it was 6.00 to 7.00.

For `O=C1CNC(=O)[C@@H](Cc2ccc(NC(=O)[C@@H](NC(=O)Cc3ccc(O)cc3)C3CCCCC3)cc2)NC(=O)CC2(CCCC2)CC(=O)NCCCCCN1` [Compound 192], the negative-log Kd (pKd) at IL17A is over 7.00. Further, the results for the negative-log IC50 (pIC50) in assay [1] and in assay [2] were 5.00 to 6.00 and over 7.00, respectively.

At IL17A, `O=C1CNC(=O)[C@@H](Cc2ccc(NC(=O)[C@H](Cc3ccccc3Cl)NC(=O)c3ccccn3)cc2)NC(=O)CC2(CCCC2)CC(=O)NCCCCCN1` [Compound 195] showed a negative logarithm of the Kd (pKd) of 6.00 to 7.00. Also, the pIC50 in assay [3] was over 7.00; in assay [2], 6.00 to 7.00.

For the compound `O=C1CNC(=O)[C@@H](Cc2ccc(NC(=O)[C@H](Cc3ccccc3Cl)NC(=O)c3cncnc3)cc2)NC(=O)CC2(CCCC2)CC(=O)NCCCCCN1` [Compound 201], the negative-log Kd (pKd) at IL17A was over 7.00. Moreover, the negative-log IC50 (pIC50) in assay [1] was under 5.00; in assay [2], 6.00 to 7.00.

Regarding `CC(C)(C)C(=O)N[C@@H](Cc1ccccc1Cl)C(=O)Nc1ccc(C[C@H]2NC(=O)CC3(CCCC3)CC(=O)NCCCCCNC(=O)CNC2=O)cc1` [Compound 206], at IL17A, the pKd is over 7.00. In addition, the pIC50 in assay [1] is 5.00 to 6.00; in assay [2] it was over 7.00.

As for `O=C1CNC(=O)[C@@H](Cc2ccc(NC(=O)[C@H](Cc3ccccc3Cl)NC(=O)Cc3ccccc3)cc2)NC(=O)CC2(CCCC2)CC(=O)NCCOCCN1` [Compound 209], the pKd at IL17A is over 7.00. The pIC50 in assay [1] was 5.00 to 6.00; in assay [2], over 7.00.

Consider `O=C1CNC(=O)[C@@H](Cc2ccc(NC(=O)[C@H](Cc3ccccc3Br)NC(=O)Cc3ccc(O)cc3)cc2)NC(=O)CC2(CCCC2)CC(=O)NCCCCCN1` [Compound 211], for which, at IL17A, the pKd is over 7.00. Also, the pIC50 was 5.00 to 6.00 in assay [1] and over 7.00 in assay [2].

At IL17A, `O=C1CNC(=O)[C@@H](Cc2ccc(NC(=O)[C@H](Cc3ccccc3Cl)NC(=O)Cc3ccccc3O)cc2)NC(=O)CC2(CCCC2)CC(=O)NCCCCCN1` [Compound 216] had a pKd of over 7.00. Moreover, the pIC50 in assay [1] was 5.00 to 6.00; in assay [2] it was over 7.00.

Take `O=C1CNC(=O)[C@@H](Cc2ccc(NC(=O)[C@H](Cc3ccccc3Cl)NC(=O)Cc3ccccc3)cc2)NC(=O)CC2(CCCCC2)CC(=O)NCCCCCN1` [Compound 223]: at IL17A, the pKd was over 7.00. Further, the pIC50 in assay [2] is over 7.00.

On IL17A, `O=C1CNC(=O)[C@@H](Cc2ccc(NC(=O)[C@H](Cc3ccc(Cl)c(Cl)c3)NC(=O)Cc3ccccc3)cc2)NC(=O)CC2(CCCC2)CC(=O)OCCCCCN1` [Compound 224] gave a pKd of 6.00 to 7.00. Further, in assay [2], the negative logarithm of the IC50 (pIC50) is 5.00 to 6.00.

`O=C1CNC(=O)[C@@H](Cc2ccc(NC(=O)[C@H](Cc3ccc(Br)s3)NC(=O)Cc3ccccc3)cc2)NC(=O)CC2(CCCC2)CC(=O)OCCCCCN1` [Compound 225]: the negative-log Kd (pKd) at IL17A is 6.00 to 7.00. Besides, the pIC50 in assay [2] is 5.00 to 6.00.

Consider `O=C1CNC(=O)[C@@H](Cc2ccc(NC(=O)[C@H](Cc3ccccc3Cl)NC(=O)c3ccc(F)cc3)cc2)NC(=O)CC2(CCCC2)CC(=O)NCCCCCN1` [Compound 227], for which, at IL17A, the pKd is over 7.00. Moreover, the pIC50 in assay [1] was 5.00 to 6.00; in assay [2], 6.00 to 7.00.

Take `O=C1CNC(=O)[C@@H](Cc2ccc(NC(=O)[C@H](Cc3cccs3)NC(=O)Cc3ccccc3)cc2)NC(=O)CC2(CCCC2)CC(=O)NCCCCCN1` [Compound 228]: the negative-log Kd (pKd) at IL17A is over 7.00. In addition, the pIC50 in assay [2] was over 7.00.

With `O=C1CNC(=O)[C@@H](Cc2ccc(NC(=O)[C@H](Cc3ccco3)NC(=O)Cc3ccccc3)cc2)NC(=O)CC2(CCCC2)CC(=O)NCCCCCN1` [Compound 230], on IL17A, the negative logarithm of the Kd (pKd) is over 7.00. In assay [2], the negative logarithm of the IC50 (pIC50) is over 7.00.

`O=C1CNC(=O)[C@@H](Cc2ccc(NC(=O)[C@H](Cc3cscn3)NC(=O)Cc3ccccc3)cc2)NC(=O)CC2(CCCC2)CC(=O)NCCCCCN1` [Compound 232]: the negative-log Kd (pKd) at IL17A is 6.00 to 7.00. Moreover, the pIC50 in assay [2] was 5.00 to 6.00.

As for `O=C1CNC(=O)[C@@H](Cc2ccc(NC(=O)[C@H](Cc3csc4ccccc34)NC(=O)Cc3ccccc3)cc2)NC(=O)CC2(CCCC2)CC(=O)NCCCCCN1` [Compound 233], the negative logarithm of the Kd (pKd) on IL17A was over 7.00. Moreover, the pIC50 in assay [2] is 6.00 to 7.00.

As for `COC(=O)N[C@@H](Cc1ccccc1Cl)C(=O)Nc1ccc(C[C@H]2NC(=O)CC3(CCCC3)CC(=O)NCCOCCOCCNC2=O)cc1` [Compound 465], in the assay with DNFB-treated BALB/c mice (30 mg/kg), the “Reduction in edema (%)” value stood at 23.5%, the “IFNγ Reduction (%)” value is recorded as 47.4% and the “IL6 Reduction (%)” value amounted to 42.5%. The pIC50 in assay [3] was over 7.00.

With `O=C1CC2(CCCC2)CC(=O)N[C@H](Cc2ccc(NC(=O)[C@H](Cc3ccccc3Cl)NC(=O)C(F)(F)c3ccccc3)cc2)C(=O)NCCOCCOCCN1` [Compound 475], in assay [1], the negative logarithm of the IC50 (pIC50) was 6.00 to 7.00. In addition, in the assay on DNFB-treated BALB/c mice (10 mg/kg), the “Reduction in edema (%)” value is reported as 19.2%, the “CXCL1 Reduction (%)” value came out at 61.4%, the “IFNγ Reduction (%)” value came out at 11.3% and the “IL6 Reduction (%)” value came to 29.7%. In addition, in the assay with DNFB-treated BALB/c mice (30 mg/kg), the “Reduction in edema (%)” value amounted to 49.5%, the “CXCL1 Reduction (%)” value is listed as 63.0%, the “IFNγ Reduction (%)” value stood at 45.0% and the “IL6 Reduction (%)” value was found to be 51.9%. Also, in assay [3], the negative logarithm of the IC50 (pIC50) was over 7.00.

For orientation: pKd means the negative decadic logarithm of the Kd, by convention in mol/L. Low values mean a high Kd, high ones a low Kd. For orientation: pIC50 means −log10 of the IC50, conventionally taken in molar units.
